Patent US20240122179A1, “AUXINIC HERBICIDES AND METHODS OF USE THEREOF” (CORTEVA AGRISCIENCE LLC, priority 2021, published 2024)
Where two headings read alike, the source gives them in different places.

What was measured:
Test in all cases: Postemergence herbicide evaluation, percent reduction in plant size vs untreated control, 21 days after treatment
[1] = system: Conyza canadensis (L.) (ERICA); format: in vivo, Conyza canadensis (L.) (Horseweed); settings: Erigeron canadensis, post-emergence, 504 h, ERICA, postemergence, read-out: Control/Injury; for pest or weed control at 140 g/ha: rate 140 g ae/ha; for pest or weed control at 280 g/ha: rate 280 g ae/ha
Procedure: (§1) Plants were grown in a soil media composed of 90% by volume Promix BX (Premier Tech Horticulture, Quakertown, PA) and 10% Profile Greens Grade (Profile Products LLC, Buffalo Grove, IL). Promix BX contains approximately 83% Sphagnum Peat Moss, 13% Perlite, 5% vermiculite, and proprietary amounts of limestone, starter fertilizer, and wetting agent. Profile Greens Grade is a sand-sized granule formed from calcining illite and montmorillonite clay. Several seeds of each species were planted in 10 cm square pots and top watered twice daily. Plant material was propagated in a warm greenhouse with temperature ranging from 25 to 28° C. and 50 to 60% relative humidity at the Corteva Global Headquarters (Indianapolis, Indiana, USA). Natural light was supplemented with 1000-watt metal halide overhead lamps with an average illumination of 500 μE m^−2 s^−1 photosynthetic active radiation for 16 consecutive hours each day. Plants were top-watered prior to herbicide application and sub-watered after herbicide application.
(§2) Appropriate amounts of test materials were weighed out into glass vials in their technical form to deliver either 140 or 280 g acid equivalent (ae)/ha. The samples were dissolved in 3 ml of Solvent 1. Solvent 1 is 97% acetone and 3% dimethyl sulfoxide and serves as a general-purpose solvent (GPS) for dissolving technical materials. […] The samples were then diluted to their final concentration using 17 ml of solvent 2 for a total of 20 ml of spray solution. Solvent 2 contains 41.58% GPS, 45.53% water, 11.88% isopropyl alcohol, 0.99% crop oil concentrate and 0.02% Trition X-155 surfactant. All percentages are listed on a volume basis. Dicamba diglycolamine was applied as a formulated herbicide, Clarity™ and diluted with solvent 2 to compare all materials in the same spray solution.
(§3) Herbicide applications were made to 3 to 4 replicates of each plant species at the 2 to 8 leaf stage, depending on the species. Treatments were applied with a research track-sprayer (Generation III Research Sprayer manufactured by DeVries Manufacturing in Hollandale, MN, USA) calibrated to deliver a spray volume of 187 L/ha. The track-sprayer was fitted with an 8003E nozzle from Spray Systems Company (North Avenue and Schmale Road, P.O. Box 7900, Wheaton, IL 60187), and used a spray pressure of 276 kPa pressure and a speed of 3.1 km/h. The nozzle height was 46 cm above the plant canopy. The experimental design used for the trials was a randomized complete block with 3 or 4 replications per treatment. After application, plants were placed on carts according to the randomization and returned to the greenhouse. Plants were sub-watered after treatment with Indianapolis city water or fertilized three times a week with a commercial fertilizer solution (Jack's Professional 15-5-15 4 Ca 2 Mg fertilizer (manufactured by JR PETERS INC., 6656 Grant Way, Allentown, PA 18106; www.jrpeters.com). Percent visual control assessments were made on a scale of 0 to 100% (where 0 was no control and 100 was complete plant death) at 7, 14, and 21 days after treatment.
(§4) In conformity with the methods outlined in Example 49, the effect of representative experimental compounds on the growth of Conyza canadensis (L.), (ERICA), common name, Horseweed, was determined at 2 different levels (respectively, 140 and 280 g acid equivalent (ae)/ha) of the experimental actives tested. Plants were treated with one of the compounds, a control plant was not treated. Twenty-one days after treatment, the plants were measured. The data is present as a percent reduction in plant size relative to the untreated control.

Amaranthus rudis (AMATA) = format: in vivo, Amaranthus rudis (tall water hemp); settings: Amaranthus tuberculatus, post-emergence, 504 h, AMATA, postemergence, read-out: Control/Injury; for pest or weed control at 140 g/ha: rate 140 g ae/ha; for pest or weed control at 280 g/ha: rate 280 g ae/ha
Procedure: as §1, §2, §3
as §4, with “Amaranthus rudis (AMATA),” for “Conyza canadensis (L.), (ERICA),”, “name tall water hemp,” for “name, Horseweed,”

[2] = system: Amaranthus palmeri (AMAPA); format: in vivo, Amaranthus palmeri (Palmer amaranth); settings: post-emergence, 504 h, postemergence, read-out: Control/Injury; for pest or weed control at 140 g/ha: rate 140 g ae/ha; for pest or weed control at 280 g/ha: rate 280 g ae/ha
Procedure: as §1, §2, §3
as §4, with “Amaranthus palmeri (AMAPA),” for “Conyza canadensis (L.), (ERICA),”, “Palmer amaranth,” for “Horseweed,”

Kochia scoparia (KCHSC) = format: in vivo; settings: Bassia scoparia, post-emergence, 504 h, KCHSC, postemergence, read-out: Control/Injury; for pest or weed control at 140 g/ha: rate 140 g ae/ha; for pest or weed control at 280 g/ha: rate 280 g ae/ha
Procedure: as §1, §2, §3
as §4, with “Kochia scoparia (KCHSC)” for “Conyza canadensis (L.), (ERICA), common name, Horseweed,”

[3] = system: Ambrosia artemisiifolia (AMBEL); format: in vivo, Ambrosia artemisiifolia (common ragweed); settings: post-emergence, 504 h, AMBEL, postemergence, read-out: Control/Injury; for pest or weed control at 140 g/ha: rate 140 g ae/ha; for pest or weed control at 280 g/ha: rate 280 g ae/ha
Procedure: as §1, §2, §3
as §4, with “Ambrosia artemisiifolia (AMBEL), (common ragweed),” for “Conyza canadensis (L.), (ERICA), common name, Horseweed,”

[4] = percent reduction vs untreated, 21 days after treatment
[5] = percent reduction vs untreated control, 21 days after treatment
[6] = R-AMAPA, percent reduction vs untreated control, 21 days after treatment

Compound: COc1c(Cl)ccc(Cl)c1C(=O)NNc1nc2ccccc2o1 [Compound A-109]
- pest or weed control at 140 g/ha [1]: 3%
- pest or weed control at 280 g/ha [1]: 5%
- pest or weed control at 140 g/ha (Amaranthus rudis (AMATA)): 2%
- pest or weed control at 280 g/ha (Amaranthus rudis (AMATA)): 3%
- pest or weed control at 140 g/ha ([2]; AMAPA): 8%
- pest or weed control at 280 g/ha ([2]; AMAPA): 5%
- pest or weed control at 140 g/ha (Kochia scoparia (KCHSC); [4]): 0%
- pest or weed control at 280 g/ha (Kochia scoparia (KCHSC); [4]): 3%
- pest or weed control at 140 g/ha [3]: 23%
- pest or weed control at 280 g/ha [3]: 20%

Compound: COc1c(Cl)ccc(Cl)c1C(=O)O/N=C/c1ccccc1 [Compound A-70]
- pest or weed control at 140 g/ha [1, 5]: 87%
- pest or weed control at 280 g/ha [1, 5]: 93%
- pest or weed control at 140 g/ha (Amaranthus rudis (AMATA)): 52%
- pest or weed control at 280 g/ha (Amaranthus rudis (AMATA)): 77%
- pest or weed control at 140 g/ha [2, 6]: 72%
- pest or weed control at 280 g/ha [2, 6]: 78%
- pest or weed control at 140 g/ha (Kochia scoparia (KCHSC)): 73%
- pest or weed control at 280 g/ha (Kochia scoparia (KCHSC)): 88%
- pest or weed control at 140 g/ha [3]: 78%
- pest or weed control at 280 g/ha [3]: 97%

Compound: COC(=O)C(C(=O)OC)C(=O)c1c(Cl)ccc(Cl)c1OC [Compound A-135]
- pest or weed control at 140 g/ha [1]: 10%
- pest or weed control at 280 g/ha [1]: 25%
- pest or weed control at 140 g/ha (Amaranthus rudis (AMATA)): 0%
- pest or weed control at 280 g/ha (Amaranthus rudis (AMATA)): 5%
- pest or weed control at 140 g/ha ([2]; AMAPA): 6%
- pest or weed control at 280 g/ha ([2]; AMAPA): 10%
- pest or weed control at 140 g/ha (Kochia scoparia (KCHSC); [4]): 3%
- pest or weed control at 280 g/ha (Kochia scoparia (KCHSC); [4]): 3%
- pest or weed control at 140 g/ha [3]: 23%
- pest or weed control at 280 g/ha [3]: 35%

Compound: COc1c(Cl)ccc(Cl)c1C(=O)NNCc1ccccc1 [Compound A-111]
- pest or weed control at 140 g/ha [1]: 8%
- pest or weed control at 280 g/ha [1]: 10%
- pest or weed control at 140 g/ha (Amaranthus rudis (AMATA)): 18%
- pest or weed control at 280 g/ha (Amaranthus rudis (AMATA)): 28%
- pest or weed control at 140 g/ha ([2]; AMAPA): 20%
- pest or weed control at 280 g/ha ([2]; AMAPA): 33%
- pest or weed control at 140 g/ha (Kochia scoparia (KCHSC); [4]): 5%
- pest or weed control at 280 g/ha (Kochia scoparia (KCHSC); [4]): 5%
- pest or weed control at 140 g/ha [3]: 25%
- pest or weed control at 280 g/ha [3]: 35%

Compound: COc1c(Cl)ccc(Cl)c1C(=O)O/N=C/C(C)=O [Compound A-69]
- pest or weed control at 140 g/ha [1, 5]: 88%
- pest or weed control at 280 g/ha [1, 5]: 91%
- pest or weed control at 140 g/ha (Amaranthus rudis (AMATA)): 67%
- pest or weed control at 280 g/ha (Amaranthus rudis (AMATA)): 80%
- pest or weed control at 140 g/ha [2, 6]: 70%
- pest or weed control at 280 g/ha [2, 6]: 80%
- pest or weed control at 140 g/ha (Kochia scoparia (KCHSC)): 91%
- pest or weed control at 280 g/ha (Kochia scoparia (KCHSC)): 96%
- pest or weed control at 140 g/ha [3]: 80%
- pest or weed control at 280 g/ha [3]: 96%

Compound: COc1c(Cl)ccc(Cl)c1C(=O)n1ccnc1 [Compound A-126]
- pest or weed control at 140 g/ha [1]: 15%
- pest or weed control at 280 g/ha [1]: 33%
- pest or weed control at 140 g/ha (Amaranthus rudis (AMATA)): 45%
- pest or weed control at 280 g/ha (Amaranthus rudis (AMATA)): 55%
- pest or weed control at 140 g/ha ([2]; AMAPA): 33%
- pest or weed control at 280 g/ha ([2]; AMAPA): 35%
- pest or weed control at 140 g/ha (Kochia scoparia (KCHSC); [4]): 28%
- pest or weed control at 280 g/ha (Kochia scoparia (KCHSC); [4]): 50%
- pest or weed control at 140 g/ha [3]: 33%
- pest or weed control at 280 g/ha [3]: 50%

Compound: COc1c(Cl)ccc(Cl)c1C(=O)O/N=C/c1cc(/C=N/OC(=O)c2c(Cl)ccc(Cl)c2OC)cc(/C=N/OC(=O)c2c(Cl)ccc(Cl)c2OC)c1 [Compound A-99]
- pest or weed control at 140 g/ha [1]: 97%
- pest or weed control at 280 g/ha [1]: 99%
- pest or weed control at 140 g/ha (Amaranthus rudis (AMATA)): 84%
- pest or weed control at 280 g/ha (Amaranthus rudis (AMATA)): 78%
- pest or weed control at 140 g/ha ([2]; AMAPA): 90%
- pest or weed control at 280 g/ha ([2]; AMAPA): 80%
- pest or weed control at 140 g/ha (Kochia scoparia (KCHSC); [4]): 93%
- pest or weed control at 280 g/ha (Kochia scoparia (KCHSC); [4]): 95%
- pest or weed control at 140 g/ha [3]: 96%
- pest or weed control at 280 g/ha [3]: 95%

Compound: COc1c(Cl)ccc(Cl)c1C(=O)O [Dicamba, 3,6-dichloro-2-methoxybenzoic acid, reference compound]
- pest or weed control at 140 g/ha [1]: 94%
- pest or weed control at 280 g/ha [1]: 100%
- pest or weed control at 140 g/ha (Amaranthus rudis (AMATA)): 99%
- pest or weed control at 280 g/ha (Amaranthus rudis (AMATA)): 90%
- pest or weed control at 140 g/ha ([2]; AMAPA): 78%
- pest or weed control at 280 g/ha ([2]; AMAPA): 94%
- pest or weed control at 140 g/ha (Kochia scoparia (KCHSC); [4]): 94%
- pest or weed control at 280 g/ha (Kochia scoparia (KCHSC); [4]): 97%
- pest or weed control at 140 g/ha [3]: 97%
- pest or weed control at 280 g/ha [3]: 100%

Compound: CCCNNC(=O)c1c(Cl)ccc(Cl)c1OC [Compound A-112]
- pest or weed control at 140 g/ha [1]: 10%
- pest or weed control at 280 g/ha [1]: 10%
- pest or weed control at 140 g/ha (Amaranthus rudis (AMATA)): 13%
- pest or weed control at 280 g/ha (Amaranthus rudis (AMATA)): 20%
- pest or weed control at 140 g/ha ([2]; AMAPA): 18%
- pest or weed control at 280 g/ha ([2]; AMAPA): 33%
- pest or weed control at 140 g/ha (Kochia scoparia (KCHSC); [4]): 0%
- pest or weed control at 280 g/ha (Kochia scoparia (KCHSC); [4]): 18%
- pest or weed control at 140 g/ha [3]: 18%
- pest or weed control at 280 g/ha [3]: 38%

Compound: COc1c(Cl)ccc(Cl)c1C(=O)NNc1ccc([N+](=O)[O-])cc1 [Compound A-132]
- pest or weed control at 140 g/ha [1]: 23%
- pest or weed control at 280 g/ha [1]: 8%
- pest or weed control at 140 g/ha (Amaranthus rudis (AMATA)): 18%
- pest or weed control at 280 g/ha (Amaranthus rudis (AMATA)): 18%
- pest or weed control at 140 g/ha ([2]; AMAPA): 20%
- pest or weed control at 280 g/ha ([2]; AMAPA): 30%
- pest or weed control at 140 g/ha (Kochia scoparia (KCHSC); [4]): 8%
- pest or weed control at 280 g/ha (Kochia scoparia (KCHSC); [4]): 15%
- pest or weed control at 140 g/ha [3]: 38%
- pest or weed control at 280 g/ha [3]: 33%
